Results on three molecules are retold here after patent publication US20260283983A1, “PHARMACEUTICAL COMPOSITIONS FOR WOUND CARE” (BIO PROTECTANT TECHNOLOGIES, INC., priority 2023, published 2026).

In brackets after ≈: the same amount, converted by molar mass. Where a SMILES comes first, the peptide text is derived from it. Bridges are numbered along the chain shown (N, C = ends). [ ]: non-standard residue; d: D form. The star is where a group is joined. Ileψ(thiazoline)Cys = CC[C@H](C)[C@H](N)C1=N[C@H](C(=O)*)CS1; dOrn = NCCC[C@@H](N)C(=O)O

One assay relates to S. mutans. Description: S. mutans quantitative biofilm reduction assay. In kind it is cell-based. The note with it: same treatment concentration; FIG. 6A-6C. As to the method: • Day 1: O/N culture of S. mutans • Day 2: Dilute O/N culture 1:9 in BHI • Place discs in 2 mL diluted culture and incubate 24 h • Day 3 Transfer discs to 2 mL BMGS (culture in BMGS for 1-3 days) • Day 4 1-Day: Transfer discs to 2 mL sterilants for desired incubation time • Transfer discs back to 2 mL BMGS for 24 h • 2-Day: Transfer discs to 2 mL BMGS and incubate for another 24 h • Day 5 1-Day: Sonicate disc and plate 100 μL of different dilutions • 2-Day: Transfer discs to 2 mL sterilants for desired incubation time • Transfer discs back to 2 mL BMGS for 24 h • Day 6 1-Day: Count plates • 2-Day: Sonicate disc and plate 100 μL of different dilutions • Day 7 Count plates

Assay [1] deals with Bioluminescent CA-MRSA strain MW2. Description: MIC and MBC determination, bioluminescent CA-MRSA strain MW2. The note with it: Staphylococcus aureus. In kind it is cell-based, S. aureus. An excerpt:
(§1) The MIC and MBC of Formulation B was initially determined using a panel of S. aureus strains (Table 1) including laboratory S. aureus ATCC 6538, bioluminescent S. aureus strain Newman, bioluminescent CA-MRSA strain MW2, and a MRSA clinical isolate.

The test system of a further assay is MRSA clinical isolate. Kind of assay: MIC and MBC determination, MRSA clinical isolate. It is filed as cell-based, S. aureus. The settings on record: Staphylococcus aureus.
Text: as §1

In assay [2] the test system is Bioluminescent S. aureus strain Newman. Description: MIC and MBC determination, bioluminescent S. aureus strain Newman. In kind it is cell-based. The settings on record: Staphylococcus aureus.
Text: as §1

Assay [3] has as its system bioluminescent MRSA (CA-MRSA). Description: Murine model of wound healing (biopsy punch) infected with bioluminescent MRSA. It is filed as in vivo. The note with it: mice infected with 1×10^5 CFU bioluminescent MRSA; 20 μL topically three times daily; two week period; FIG. 1A. The protocol:
An exemplary formulation (Formulation A) was tested in the murine model of wound healing (Dunn, Louise, et al. “Murine model of wound healing.” Journal of Visualized Experiments. 75 (2013): e50265-e50265).
• Biopsy punch model performed • Infected with 1×10^5 CFUs bioluminescent MRSA
Wound was imaged then treated with Formulation A
The animals were treated topically with 20 μL of Formulation A, bacitracin, or vehicle three times daily and imaged
The animals were imaged, weight, and their wound was measured daily
The animals were sacrificed and the bacterial burdens were checked in the wound, the liver, the spleen, and the blood.
Tracking of infection and wound healing in mice infected with 1×10^5 CFU bioluminescent MRSA and treated with 20 μL Formulation A, bacitracin (positive control), or vehicle control (N=5 for each treatment group). FIG. 1A: average radiance in the wound bed detected over a two week period. […] Statistical analysis was conducted in GraphPad Prism 6 using a two-way ANOVA test: ***p<0.001; ****p<0.0001. FIG. 1B: box and whisker plots of the wound area over time, beginning on day 4 after the removal of the surgical wound dressing. […] FIG. 1C: plot of the change in weight through the duration of infection and treatment.

The test system of a further assay is S. aureus ATCC 6538. Description: MIC and MBC determination, S. aureus ATCC 6538. The note with it: Staphylococcus aureus. In kind it is cell-based.
Text: as §1

[4] abbreviates: read-out: Minimum Bactericidal Concentration.
Setting [5] is: read-out: Minimum Inhibitory Concentration.

For the molecule “C12-C14 alkyl(ethylbenzyl)dimethylammonium chloride”, in the assay on S. mutans, the “biofilm accumulation after treatment” value is “approximate equivalence”.
Regarding `CC[C@H](C)[C@H](N)C1=N[C@H](C(=O)N[C@@H](CC(C)C)C(=O)N[C@H](CCC(=O)O)C(=O)N[C@H](C(=O)N[C@H]2CCCCNC(=O)[C@H](CC(N)=O)NC(=O)[C@@H](CC(=O)O)NC(=O)[C@H](Cc3cnc[nH]3)NC(=O)[C@@H](Cc3ccccc3)NC(=O)[C@H]([C@@H](C)CC)NC(=O)[C@@H](CCCN)NC2=O)[C@@H](C)CC)CS1` [Bacitracin] ({Ileψ(thiazoline)Cys}-L[dE]IK[dOrn]I[dF]H[dD]N; lactam 4-C), the MBC in assay [1] (setting [4]) came out at 333 mg/L (≈ 234 µM); with MRSA clinical isolate (setting [4]), 67 mg/L (≈ 47.1 µM); in assay [2] (setting [4]), 333 mg/L (≈ 234 µM); in the assay with S. aureus ATCC 6538 (ATCC6538, read-out: Minimum Bactericidal Concentration) it was 67 mg/L (≈ 47.1 µM). Also, the MIC was 67 mg/L (≈ 47.1 µM) in assay [1] (setting [5]); 67 mg/L (≈ 47.1 µM) with MRSA clinical isolate (setting [5]); 67 mg/L (≈ 47.1 µM) in assay [2] (setting [5]); 67 mg/L (≈ 47.1 µM) with S. aureus ATCC 6538 (ATCC6538, read-out: Minimum Inhibitory Concentration). Besides, the “bacterial burden, average radiance in the wound bed” value in assay [3] is “completely cleared infection within the first day”.
For `CCCCCCCCCCCCC[N+](C)(C)Cc1ccccc1` [BAK, benzalkonium chloride], the “biofilm accumulation after treatment” value with S. mutans is reported as “approximate equivalence”.
